Among the data in patent US12410163B2, “Compounds as GLP-IR agonists” (Terns Pharmaceuticals, Inc., priority 2022, dated 2025) are hHep t1/2 values, retold here.

The test system of this data set is human hepatocytes. Nature of the data set: Metabolic stability in hepatocytes. The format is in vitro ADME. Conditions: 1 μM, 1×10^6 cells/mL, 0-240 min. The method in brief: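 Cryopreserved human hepatocytes at 1×10^6 cells/mL in DMEM were exposed to 1 μM compound (0.1% DMSO) for 0–240 min at 37 °C, 5% CO2. Parent loss quantified by LC-MS/MS; t1/2 = 0.693/k and CLint = k/cell density from semi-log % remaining versus time.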

Take `N#Cc1ccc(COc2cccc(N3CCN(Cc4nc5ccc(C(=O)O)cc5n4Cc4cncs4)[C@H]4C[C@H]43)n2)c(F)c1` (single isomer, unassigned) [Compound 2, 2-((5-(6-((4-Cyano-2-fluorobenzyl)oxy)pyridin-2-yl)-2,5-diazabicyclo[4.1.0]heptan-2-yl)methyl)-1-(thiazol-5-ylmethyl)-1H-benzo[d]imidazole-6-carboxylic Acid]: the hHep t1/2 was more than 8 h.
